# Data taken from US20120029177A1, “HETEROCYCLE-AMINO ACID DERIVATIVES FOR TARGETING CANCER TISSUE AND RADIOACTIVE OR NON-RADIOACTIVE LABELED COMPOUNDS THEREOF” (SNU R&DB FOUNDATION, priority 2009, published 2012).
# System: SNU-C4 xenografted nude mice
# Assay: Biodistribution study in SNU-C4 xenografted nude mice after intravenous injection
# Type: in vivo, mouse
# Details: for % ID/g Tumor: SNU-C4 tumor
# Procedure: Human colon cancer cell line SNU-C4 was cultured in RPMI1640 media containing 10% fetal bovine serum and harvested using trypsin. The cells were washed using 10 mL PBS and centrifugation at 3,000 rpm. Each nude mouse was injected with 2×10^5 cells/0.1 mL on the right shoulder subcutaneously. On 13 days post-injection, each 10 μCi/0.1 mL of ^68Ga labeled agent was injected into the xenografted mice through the tail vein. The injected mice were sacrificed at 10 min, 30 min, 1 hr, and 2 hr, cancer, blood, muscle, heart, liver, spleen, stomach, intestine, and bone were obtained, weighed, and their radioactivities were counted. The results were expressed as percentages of injected dose per gram tissue (% ID/g).
# [1] = 10 min after intravenous injection
# [2] = 30 min after intravenous injection
# [3] = 1 hr after intravenous injection
# [4] = 2 hr after intravenous injection
structure (smiles),measurement,setting,value
"O=C([O-])CN1CCNCCN(CC(=O)[O-])CCNCC1.[68Ga+3] [^68Ga-DO2A, reference compound]",% ID/g Tumor,[1],2.71 ± 0.51 % ID/g
same,% ID/g Tumor,[2],2.10 ± 0.23 % ID/g
same,% ID/g Tumor,[3],0.99 ± 0.10 % ID/g
same,% ID/g Tumor,[4],0.67 ± 0.12 % ID/g
same,% ID/g Blood,[1],7.82 ± 1.05 % ID/g
same,% ID/g Blood,[2],3.61 ± 0.74 % ID/g
same,% ID/g Blood,[3],1.12 ± 0.27 % ID/g
same,% ID/g Blood,[4],0.44 ± 0.06 % ID/g
same,% ID/g Bone,[1],2.56 ± 0.61 % ID/g
same,% ID/g Bone,[2],1.54 ± 0.53 % ID/g
same,% ID/g Bone,[3],0.72 ± 0.23 % ID/g
same,% ID/g Bone,[4],0.58 ± 0.19 % ID/g
same,% ID/g Heart,[1],2.33 ± 0.32 % ID/g
same,% ID/g Heart,[2],0.97 ± 0.20 % ID/g
same,% ID/g Heart,[3],0.37 ± 0.10 % ID/g
same,% ID/g Heart,[4],0.23 ± 0.03 % ID/g
same,% ID/g Intestine,[1],2.24 ± 0.36 % ID/g
same,% ID/g Intestine,[2],1.27 ± 0.25 % ID/g
same,% ID/g Intestine,[3],0.68 ± 0.11 % ID/g
same,% ID/g Intestine,[4],0.62 ± 0.07 % ID/g
same,% ID/g Kidney,[1],32.32 ± 21.63 % ID/g
same,% ID/g Kidney,[2],13.61 ± 3.98 % ID/g
same,% ID/g Kidney,[3],8.46 ± 2.11 % ID/g
same,% ID/g Kidney,[4],6.90 ± 1.10 % ID/g
same,% ID/g Liver,[1],2.91 ± 0.31 % ID/g
same,% ID/g Liver,[2],2.75 ± 0.49 % ID/g
same,% ID/g Liver,[3],2.31 ± 0.27 % ID/g
same,% ID/g Liver,[4],2.17 ± 0.20 % ID/g
same,% ID/g Lung,[1],6.96 ± 1.06 % ID/g
same,% ID/g Lung,[2],3.57 ± 0.80 % ID/g
same,% ID/g Lung,[3],1.32 ± 0.35 % ID/g
same,% ID/g Lung,[4],0.87 ± 0.25 % ID/g
same,% ID/g Muscle,[1],2.81 ± 0.82 % ID/g
same,% ID/g Muscle,[2],1.45 ± 0.42 % ID/g
same,% ID/g Muscle,[3],0.45 ± 0.17 % ID/g
same,% ID/g Muscle,[4],0.13 ± 0.07 % ID/g
same,% ID/g Spleen,[1],1.86 ± 0.24 % ID/g
same,% ID/g Spleen,[2],1.03 ± 0.22 % ID/g
same,% ID/g Spleen,[3],0.47 ± 0.10 % ID/g
same,% ID/g Spleen,[4],0.38 ± 0.08 % ID/g
same,% ID/g Stomach,[1],2.52 ± 0.46 % ID/g
same,% ID/g Stomach,[2],1.22 ± 0.32 % ID/g
same,% ID/g Stomach,[3],0.38 ± 0.05 % ID/g
same,% ID/g Stomach,[4],0.18 ± 0.03 % ID/g
"O=C([O-])CN1CCNCCN(CC(=O)[O-])CCN(CC(=O)[O-])CC1.[68Ga+3] [^68Ga-DO3A, reference compound]",% ID/g Tumor,[1],3.14 ± 0.73 % ID/g
same,% ID/g Tumor,[2],1.83 ± 0.20 % ID/g
same,% ID/g Tumor,[3],0.93 ± 0.33 % ID/g
same,% ID/g Tumor,[4],0.54 ± 0.04 % ID/g
same,% ID/g Blood,[1],6.96 ± 0.18 % ID/g
same,% ID/g Blood,[2],3.21 ± 0.58 % ID/g
same,% ID/g Blood,[3],1.03 ± 0.34 % ID/g
same,% ID/g Blood,[4],0.22 ± 0.02 % ID/g
same,% ID/g Bone,[1],1.64 ± 0.48 % ID/g
same,% ID/g Bone,[2],0.97 ± 0.28 % ID/g
same,% ID/g Bone,[3],0.38 ± 0.12 % ID/g
same,% ID/g Bone,[4],0.28 ± 0.33 % ID/g
same,% ID/g Heart,[1],1.75 ± 0.12 % ID/g
same,% ID/g Heart,[2],0.77 ± 0.11 % ID/g
same,% ID/g Heart,[3],0.32 ± 0.09 % ID/g
same,% ID/g Heart,[4],0.06 ± 0.09 % ID/g
same,% ID/g Intestine,[1],1.87 ± 0.06 % ID/g
same,% ID/g Intestine,[2],1.00 ± 0.14 % ID/g
same,% ID/g Intestine,[3],0.64 ± 0.17 % ID/g
same,% ID/g Intestine,[4],0.42 ± 0.08 % ID/g
same,% ID/g Kidney,[1],11.96 ± 0.51 % ID/g
same,% ID/g Kidney,[2],7.85 ± 1.00 % ID/g
same,% ID/g Kidney,[3],6.52 ± 3.13 % ID/g
same,% ID/g Kidney,[4],7.50 ± 3.82 % ID/g
same,% ID/g Liver,[1],1.99 ± 0.03 % ID/g
same,% ID/g Liver,[2],1.35 ± 0.13 % ID/g
same,% ID/g Liver,[3],1.02 ± 0.16 % ID/g
same,% ID/g Liver,[4],0.93 ± 0.05 % ID/g
same,% ID/g Lung,[1],5.81 ± 0.54 % ID/g
same,% ID/g Lung,[2],2.82 ± 0.59 % ID/g
same,% ID/g Lung,[3],1.26 ± 0.28 % ID/g
same,% ID/g Lung,[4],0.61 ± 0.23 % ID/g
same,% ID/g Muscle,[1],1.69 ± 0.39 % ID/g
same,% ID/g Muscle,[2],0.92 ± 0.27 % ID/g
same,% ID/g Muscle,[3],0.32 ± 0.17 % ID/g
same,% ID/g Muscle,[4],0.10 ± 0.03 % ID/g
same,% ID/g Spleen,[1],1.63 ± 0.08 % ID/g
same,% ID/g Spleen,[2],0.95 ± 0.14 % ID/g
same,% ID/g Spleen,[3],0.64 ± 0.09 % ID/g
same,% ID/g Spleen,[4],0.53 ± 0.11 % ID/g
same,% ID/g Stomach,[1],2.37 ± 0.56 % ID/g
same,% ID/g Stomach,[2],1.00 ± 0.24 % ID/g
same,% ID/g Stomach,[3],0.43 ± 0.20 % ID/g
same,% ID/g Stomach,[4],0.16 ± 0.05 % ID/g
"O=C([O-])CN1CCN(CC(=O)[O-])CCN(CC(=O)O)CCN(CC(=O)[O-])CC1.[68Ga+3] [^68Ga-DOTA, reference compound]",% ID/g Tumor,[1],2.55 ± 0.81 % ID/g
same,% ID/g Tumor,[2],1.26 ± 0.23 % ID/g
same,% ID/g Tumor,[3],0.60 ± 0.06 % ID/g
same,% ID/g Tumor,[4],0.41 ± 0.09 % ID/g
same,% ID/g Blood,[1],7.52 ± 0.77 % ID/g
same,% ID/g Blood,[2],2.76 ± 0.41 % ID/g
same,% ID/g Blood,[3],0.90 ± 0.19 % ID/g
same,% ID/g Blood,[4],0.21 ± 0.01 % ID/g
same,% ID/g Bone,[1],1.86 ± 0.22 % ID/g
same,% ID/g Bone,[2],0.85 ± 0.11 % ID/g
same,% ID/g Bone,[3],0.33 ± 0.10 % ID/g
same,% ID/g Bone,[4],0.17 ± 0.17 % ID/g
same,% ID/g Heart,[1],2.04 ± 0.19 % ID/g
same,% ID/g Heart,[2],0.68 ± 0.09 % ID/g
same,% ID/g Heart,[3],0.23 ± 0.08 % ID/g
same,% ID/g Heart,[4],0.08 ± 0.05 % ID/g
same,% ID/g Intestine,[1],1.62 ± 0.11 % ID/g
same,% ID/g Intestine,[2],0.68 ± 0.08 % ID/g
same,% ID/g Intestine,[3],0.36 ± 0.05 % ID/g
same,% ID/g Intestine,[4],0.26 ± 0.08 % ID/g
same,% ID/g Kidney,[1],16.19 ± 1.83 % ID/g
same,% ID/g Kidney,[2],6.33 ± 0.95 % ID/g
same,% ID/g Kidney,[3],4.13 ± 1.13 % ID/g
same,% ID/g Kidney,[4],2.92 ± 0.97 % ID/g
same,% ID/g Liver,[1],1.30 ± 0.15 % ID/g
same,% ID/g Liver,[2],0.60 ± 0.08 % ID/g
same,% ID/g Liver,[3],0.32 ± 0.04 % ID/g
same,% ID/g Liver,[4],0.21 ± 0.03 % ID/g
same,% ID/g Muscle,[1],2.08 ± 0.11 % ID/g
same,% ID/g Muscle,[2],0.70 ± 0.12 % ID/g
same,% ID/g Muscle,[3],0.26 ± 0.12 % ID/g
same,% ID/g Muscle,[4],0.10 ± 0.04 % ID/g
same,% ID/g Spleen,[1],1.41 ± 0.08 % ID/g
same,% ID/g Spleen,[2],0.56 ± 0.07 % ID/g
same,% ID/g Spleen,[3],0.27 ± 0.06 % ID/g
same,% ID/g Spleen,[4],0.18 ± 0.06 % ID/g
same,% ID/g Stomach,[1],1.86 ± 0.39 % ID/g
same,% ID/g Stomach,[2],0.72 ± 0.15 % ID/g
same,% ID/g Stomach,[3],0.26 ± 0.06 % ID/g
same,% ID/g Stomach,[4],0.10 ± 0.03 % ID/g
